Values after ≈ are worked out from the molar mass of the structure shown.
What was measured:
[1] = system: M. smegmatis inverted membrane vesicle; set-up: method as in doi:10.1039/C5MD00589B, PMID 35140452; conditions: M. smegmatis inverted membrane vesicle assay; cited from earlier work
M.tb bacteria = system: M.tb bacteria; set-up: method as in doi:10.1039/C5MD00589B, PMID 35140452; conditions: cited from earlier work
tuberculosis = system: tuberculosis; set-up: method as in doi:10.1039/C5MD00589B, PMID 35140452; conditions: cited from earlier work
[2] = system: Mycobacterium tuberculosis (strain H37Rv); assay: MABA minimum inhibitory concentration assay (aerobic/replicating); assay type: cell-based; conditions: Mycobacterium tuberculosis; M.tb H37Rv, aerobic/replicating; 90% inhibition of growth
[3] = system: VERO green monkey kidney cells; assay: VERO mammalian cell toxicity assay; assay type: cell-based; conditions: Chlorocebus sabaeus; inhibition of growth of VERO green monkey kidney epithelial cells
[4] = Microsomal stability, human liver microsomes; assay type: in vitro ADME; conditions: pH 7.4; for CLint scaled at 1 μM / half-life at 1 μM: human, microsomes; for microsomal CLint at 1 μM: human liver microsomes, read-out: HLM Clint(mic)
Procedure, shortened: (§1)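 Compounds at 1 μM incubated at 37 °C with human or CD-1 mouse liver microsomes (0.5 mg/mL protein) plus NADPH regenerating system in 100 mM phosphate buffer, pH 7.4. Samples taken at 0–60 min, quenched in cold acetonitrile and analysed by LC-MS/MS.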

[5] = Microsomal stability, mouse liver microsomes; assay type: in vitro ADME; conditions: for CLint scaled at 1 μM / half-life at 1 μM: CD-1, mouse, microsomes, pH 7.4; for microsomal CLint at 1 μM: CD-1, pH 7.4, mouse liver microsomes, read-out: MLM Clint(mic)
Procedure, shortened: as §1

hERG = hERG (Homo sapiens, UniProt Q12809); assay: hERG channel blockade, manual patch clamp; assay type: cell-based; conditions: cloned hERG potassium channels, room temperature; for inhibition at 0.3 µM: read-out: hERG % inhib. at 0.3 µM; for inhibition at 1 µM: read-out: hERG % inhib. at 1.0 µM
Description: Selected compounds were evaluated for hERG channel blockade (Table 4) by WuXi AppTec (Shanghai) Co., Ltd. This was carried out using cloned hERG potassium channels according to their standard manual patch clamp method. Two concentrations (0.3 and 1.0 µM) were tested (at room temperature), and at least three replicates were obtained for each. Amitryptyline was used as a standard.

[6] = system: Mycobacterium tuberculosis (strain H37Rv); assay: LORA minimum inhibitory concentration assay (low-oxygen/non-replicating); conditions: M.tb H37Rv, 90% inhibition of growth

Sequence of hERG (Q12809 whole entry): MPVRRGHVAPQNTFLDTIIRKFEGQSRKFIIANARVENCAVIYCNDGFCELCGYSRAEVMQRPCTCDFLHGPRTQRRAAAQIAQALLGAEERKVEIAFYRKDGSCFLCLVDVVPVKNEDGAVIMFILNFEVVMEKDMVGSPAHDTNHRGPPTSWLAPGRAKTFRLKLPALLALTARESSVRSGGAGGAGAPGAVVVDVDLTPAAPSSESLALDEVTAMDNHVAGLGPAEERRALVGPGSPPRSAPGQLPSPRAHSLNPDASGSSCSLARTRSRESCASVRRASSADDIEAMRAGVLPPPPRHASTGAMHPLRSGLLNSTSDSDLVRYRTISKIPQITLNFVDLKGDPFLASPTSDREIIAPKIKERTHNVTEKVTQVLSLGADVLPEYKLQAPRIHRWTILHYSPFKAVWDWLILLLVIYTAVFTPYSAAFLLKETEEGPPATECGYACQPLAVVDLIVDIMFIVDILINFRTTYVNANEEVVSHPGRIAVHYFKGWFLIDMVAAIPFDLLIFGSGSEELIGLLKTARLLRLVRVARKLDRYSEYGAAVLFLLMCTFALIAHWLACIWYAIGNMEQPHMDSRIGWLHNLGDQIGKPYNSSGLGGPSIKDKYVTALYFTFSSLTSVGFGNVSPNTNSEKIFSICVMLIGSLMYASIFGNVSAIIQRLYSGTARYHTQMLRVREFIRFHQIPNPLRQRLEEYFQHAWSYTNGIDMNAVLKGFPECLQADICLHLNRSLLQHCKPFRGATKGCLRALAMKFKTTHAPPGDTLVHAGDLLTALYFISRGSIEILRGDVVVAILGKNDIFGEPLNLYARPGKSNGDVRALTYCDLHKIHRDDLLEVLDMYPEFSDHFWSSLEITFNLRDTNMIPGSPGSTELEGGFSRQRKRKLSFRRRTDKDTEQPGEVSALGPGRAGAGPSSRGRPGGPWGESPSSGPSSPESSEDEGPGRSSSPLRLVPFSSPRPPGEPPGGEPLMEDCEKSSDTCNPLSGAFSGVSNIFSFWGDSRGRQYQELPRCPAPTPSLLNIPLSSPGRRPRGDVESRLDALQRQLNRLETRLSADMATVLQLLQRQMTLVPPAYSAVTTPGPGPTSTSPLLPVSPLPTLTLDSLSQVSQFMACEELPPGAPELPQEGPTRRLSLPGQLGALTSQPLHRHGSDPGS

Row | Compound | depletion of ATP [1] | inhibition of M.tb bacteria in culture (M.tb bacteria) | activity in vivo in an acute mouse model of tuberculosis (tuberculosis) | MIC90 [2] | IC50 [3] | CLint scaled at 1 μM [4] | half-life at 1 μM [4] | microsomal CLint at 1 μM [4] | CLint scaled at 1 μM [5] | half-life at 1 μM [5] | microsomal CLint at 1 μM [5] | inhibition at 0.3 µM (hERG) | inhibition at 1 µM (hERG) | melting point | MIC90 LORA [6]
1 | CN(C)CCOc1ncc(Nc2cc(-c3ccccc3)nc3cc(-c4ccc(F)cc4)nn23)cc1F [Compound 5] | modest inhibitors | modest inhibitors | active in vivo |  |  |  |  |  |  |  |  |  |  |  | 
2 | CN(C)CCOc1ncc(Nc2cc(C(F)(F)F)nc3cc(-c4ccc(F)cc4)nn23)cc1F [Compound 6] | modest inhibitors | modest inhibitors | active in vivo |  |  |  |  |  |  |  |  |  |  |  | 
3 | Fc1ccc(-c2cnn3c(NCc4ccc(F)cn4)cc(-c4ccccc4)nc23)cc1 [Compound 52, 3-(4-Fluorophenyl)-N-((5-fluoropyridin-2-yl)methyl)-5-phenylpyrazolo[1,5-a]pyrimidin-7-amine] |  |  |  | 3.7 µg/mL (≈ 8.95 µM) | > 32 µg/mL | 11 mL/min/kg | 1.81 h | 13 µL/min/mg | 50.3 mL/min/kg | 1.82 h | 12.7 µL/min/mg | 0.8% | 11% | 118 to 120 °C | 3.4 µg/mL (≈ 8.22 µM)
4 | Fc1ccc(-c2cnn3c(NCc4ccc(Cl)cn4)cc(-c4ccccc4)nc23)cc1 [Compound 53, N-((5-Chloropyridin-2-yl)methyl)-3-(4-fluorophenyl)-5-phenylpyrazolo[1,5-a]pyrimidin-7-amine] |  |  |  | 4.9 µg/mL (≈ 11.4 µM) | > 32 µg/mL | < 8.6 mL/min/kg | > 2.42 h | < 9.6 µL/min/mg | < 38 mL/min/kg | > 2.42 h | < 9.6 µL/min/mg | 0.7% | 0% | 139 to 141 °C | 7.2 µg/mL (≈ 16.7 µM)
5 | COc1ccnc(CNc2cc(-c3ccccc3)nc3c(-c4ccc(F)cc4)cnn23)c1 [Compound 63, 3-(4-Fluorophenyl)-N-((4-methoxypyridin-2-yl)methyl)-5-phenylpyrazolo[1,5-a]pyrimidin-7-amine] |  |  |  | 1.9 µg/mL (≈ 4.47 µM) | > 32 µg/mL | < 8.6 mL/min/kg | > 2.42 h | < 9.6 µL/min/mg | < 38 mL/min/kg | > 2.42 h | < 9.6 µL/min/mg | 2.3% | 4.6% | 205 to 208 °C | 0.5 µg/mL (≈ 1.18 µM)
6 | Fc1ccc(-c2cnn3c(NCc4cc(N5CCCCC5)ccn4)cc(-c4ccccc4)nc23)cc1 [Compound 68, 3-(4-Fluorophenyl)-5-phenyl-N-((4-(piperidin-1-yl)pyridin-2-yl)methyl)pyrazolo[1,5-a]pyrimidin-7-amine] |  |  |  | 0.96 µg/mL (≈ 2.01 µM) | > 32 µg/mL | 11 mL/min/kg | 1.87 h | 12 µL/min/mg | 92 mL/min/kg | 1 h | 23 µL/min/mg | 19% | 36% | 189 to 191 °C | 0.85 µg/mL (≈ 1.78 µM)

From PMC9506485, “Synthesis and Structure–Activity Relationships for the Anti-Mycobacterial Activity of 3-Phenyl-N-(Pyridin-2-ylmethyl)Pyrazolo[1,5-a]Pyrimidin-7-Amines” (Pharmaceuticals, 2022)
